The experiment concerns the target T1, r-wtGNE (hGNE1; recombinant wild type GNE) (Homo sapiens, UniProt Q9Y223).
T1 construct: recombinant full-length GNE; expressed in E. coli, partially purified (methods also name pcDNA3.1 vector)
T1 sequence (Q9Y223 1-722): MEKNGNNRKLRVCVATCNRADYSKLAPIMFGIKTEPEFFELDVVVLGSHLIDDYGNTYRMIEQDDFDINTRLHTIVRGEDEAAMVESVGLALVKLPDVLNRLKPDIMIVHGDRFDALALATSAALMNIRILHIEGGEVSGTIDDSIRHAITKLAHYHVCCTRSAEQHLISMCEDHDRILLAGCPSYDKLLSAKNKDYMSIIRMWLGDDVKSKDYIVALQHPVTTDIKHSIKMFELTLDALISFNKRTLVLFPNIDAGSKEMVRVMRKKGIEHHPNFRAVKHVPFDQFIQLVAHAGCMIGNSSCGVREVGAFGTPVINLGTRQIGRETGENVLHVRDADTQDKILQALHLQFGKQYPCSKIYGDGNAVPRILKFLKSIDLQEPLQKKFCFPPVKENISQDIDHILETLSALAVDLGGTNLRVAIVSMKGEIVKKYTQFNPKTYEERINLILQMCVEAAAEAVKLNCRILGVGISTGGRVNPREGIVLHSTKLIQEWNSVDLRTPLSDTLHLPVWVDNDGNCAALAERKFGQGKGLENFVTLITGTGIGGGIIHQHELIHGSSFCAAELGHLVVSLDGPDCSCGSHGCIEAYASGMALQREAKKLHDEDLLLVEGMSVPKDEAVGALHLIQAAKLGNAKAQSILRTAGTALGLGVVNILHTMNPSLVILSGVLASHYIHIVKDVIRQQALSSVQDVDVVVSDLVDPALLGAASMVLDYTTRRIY
In words: SPR, GNE immobilised on gold chip. The format is binding. On the technique in general: SPR reads the build-up and loss of mass on a sensor chip optically.

As a reminder, the Kd is a measure of binding affinity in units of concentration. With `C[C@H](C(=O)N[C@@H](Cc1ccccc1)[C@@H](O)CN1CCN(Cc2ccccc2)CC1)c1ccccc1` [LTC-181, (S)-N-((2 S,3 S)−4-(4-benzylpiperazin-1-yl)−3-hydroxy-1-phenylbutan-2-yl)−2-phenylpropanamide], the Kd turned out to be 3 mM.

Values taken from article PMC12673733, “Hydroxyethylamine & phthalimide analogs restoring defects due to GNE dysfunction: rare disease therapeutic significance” (Molecular Medicine, 2025).
